Where two headings read alike, the source gives them in different places.
Columns and labels:
[1] = Creatinine and AST levels following brain death in swine with or without ENO (Example 2); format: in vivo
Experimental: The levels of creatinine and aspartate aminotransferase (AST) were monitored in two groups of swine following brain death. The level of creatinine is indicative of kidney function. The level of AST is indicative of liver function. For each groups a base line blood sample was taken, brain death was induced, and the second sample was taken after 12 h with or without 50 ppm ENO mixed into the ventilation circuit. […] AST increased in both groups but the magnitude of the increase with ENO was half that observed in the control group (35 to 79 U/l v. 30 to 145 U/l).

[2] = ENO administration to organ donors before or during organ procurement (Examples 8-11); format: in vivo, human
Experimental: A living kidney donor is administered ENO via inhalation during an open nephrectomy or as part of the insufflation gas during a laparoscopic donor nephrectomy. ENO is provided in pressurized cylinders for delivery through the ventilation or insufflation devices. The amount of ENO delivered can be titrated based on blood gas or organ blood flow changes.
A catheter is placed in a large vein of a brain dead patient. The catheter contains a cylindrical bundle of microporous hollow fiber membranes woven into a mat at the end. The catheter is placed within the central venous blood stream in the primary vein that returns blood to the heart. […] A respiratory system is activated and oxygen with 50 ppm ENO flows from a console outside the patient, through the catheter and through the hollow fibers. The fiber membranes are permeable to gases. As a result, oxygen and ENO diffuses into the blood stream from the fibers, while carbon dioxide (CO2) diffuses out of the blood stream into the fibers. Excess O2 and CO2 are removed back through the catheter to the external console.
Patient on respiratory is pronounced dead. Creatine phosphokinase (CPK) leak is indicative of cardiac injury. Patient is started on ENO 20 ppm and further CPK leak is prevented.
Patient dies. […] Kidney function is preserved over durations usually associated with decline in function.

[3] = test system: red blood cell SNO-Hb; assay: Circulating SNO-Hb following brain death in swine ventilated with ENO (Example 1); format: in vivo; settings: 12 hours after brain death
Experimental: The level of circulating SNO-Hb following brain death in three groups of swine was measured. […] FIG. 1 is a bar graph illustrating the results of administering ENO to an organ after brain death.

[4] = Brain dead cat ventilated with ENO before kidney donation (Example 20); format: in vivo; settings: Example 20: brain dead cat ventilated with oxygen and 50 ppm ENO, 24 hours
From the text: A pet owner presents at a state veterinary college with her cat that was recently struck by car. […] The owner is informed that her cat is brain dead and then provided details about a feline kidney donation program—the owner agrees to have her pet's kidneys transplanted. The animal is intubated and ventilated with oxygen augmented with 50 ppm ENO to preserve organ physiologic status while potential recipients are identified. Two clients of the vet school who own cats with end-stage renal disease are contacted and are grateful for the opportunity to have their pets receive a healthy kidney.

[5] = Physiological response of sheep to simulated altitude with or without ENO (Example 12); format: in vivo; settings: simulated altitude −4,500 meters, inhalation of 50 ppm ENO
[6] = set-up: species or system human; settings: in vivo
[7] = Example 11: deceased patient, ENO 20 ppm

CCON=O [ENO, ethyl nitrite]
AST level, second sample after 12 h ([1]; 50 ppm ENO in ventilation circuit, 12 h after brain death): 79 U/l | creatinine level (kidney function) ([1]; 50 ppm ENO in ventilation circuit, 12 h after brain death vs base line): unchanged | magnitude of the AST increase relative to control group ([1]; 50 ppm ENO, 12 h after brain death): half | AST level, base line sample ([1]; ENO group, base line before brain death): 35 U/l | kidney transplantation outcome ([2]; Example 8: living kidney donor, ENO via inhalation or insufflation gas during nephrectomy): successfully transplanted | liver transplantation outcome ([2]; Example 9: brain dead patient, oxygen with 50 ppm ENO via intravascular catheter): successfully transplanted | heart transplantation outcome ([2]; Example 10: ENO 20 ppm, heart harvested 24 hours later): successfully transplanted | creatine phosphokinase (CPK) leak (cardiac injury) ([2]; Example 10: patient pronounced dead, ENO 20 ppm): prevented | graft rejection [2, 7]: neither early nor late rejection is observed | kidney transplantation outcome [2, 7]: successfully transplanted | renal function [2, 7]: does not decline | change from baseline in red blood cell SNO-Hb concentration ([3]; swine ventilated with 20 ppm ENO): an increase in SNO-Hb | change from baseline in red blood cell SNO-Hb concentration ([3]; swine ventilated with 50 ppm ENO): an increase in SNO-Hb | organ function of donor [4]: maintained organ function | cardiac output, hypoxia/high-altitude-induced increase [5]: reducing | pulmonary arterial pressure (PAP), hypoxia/high-altitude-induced increase [5]: reducing | pulmonary vascular resistance (PVR), hypoxia/high-altitude-induced increase [5]: reducing | systemic vascular resistance (SVR) [5]: restoring SVR | breathing disorder at altitude [6]: not exacerbated | dyspnea during commercial flight [6]: breathing normally | occurrence of Acute Mountain Sickness [6]: No individuals experiences Acute Mountain Sickness | signs of altitude sickness at altitude (prevention) [6]: no sign of altitude sickness | symptoms of altitude mountain sickness [6]: abate | symptoms of high altitude cerebral edema ([6]; iv): abate | symptoms of high altitude pulmonary edema ([6]; iv): abate | symptoms of altitude mountain sickness ([6]; po): abate
